Measured values published in US20030139609A1, “Aziridinyl quinone antitumor agents based on indoles and cyclopent[b]indoles” (priority 2001, published 2003).
“And” between values parts separate entries of the source, which are not always exact repeats. Identical values can stand only once.

Columns and labels:
600 bp calf thymus DNA = test: DNA reductive alkylation by catalytically reduced aziridinyl quinones; assay type: biochemical; settings: for DNA alkylation percentage: catalytic reduction, anaerobic, pH 7.4 tris buffer, 30° C., 24 h, absorbance at 550 nm
Method: DNA Alkylation Screening of Series 1-9. The extent of DNA reductive alkylation was determined by catalytic reduction of the aziridinyl quinones in the presence of 600 bp calf thymus DNA. Oxidative workup afforded DNA colored blue as a result of the aminoquinone chromophore. […] The anaerobic conditions employed for DNA reductive alkylation assays is not meant to mimic the environment of tumor cells. These conditions do permit an accurate assessment of the structural requirements for DNA alkylation by the hydroquinone species. To be sure, agents incapable of akylating DNA under these ideal conditions will not do so in the typical cellular environment.
Alkylation of DNA by Reduced Indoloquinones. To a mixture of 1-2 mg of sonicated (600 bp) calf thymus DNA in 2.0 mL of 0.05 M of pH 7.4 tris buffer and 2 mg of Pd on carbon was added a five-to-one base pair equivalent amount of the indoloquinone dissolved in 0.5 mL of dimethylsulfoxide. The resulting solution was degassed under argon for 30 min., after which the mixture was purged with H2 for 10 min. The solution was then purged with argon for 10 min. and placed in a 30° C. bath for 24 h. The reaction was opened to the air and the catalyst was removed with a Millex-PF […] syringe filter. The filtrate was adjusted to 0.3 M acetate with a 3 M stock solution of pH 5.1 acetate and then diluted with two volumes of ethanol. The mixture was chilled at −20° C. for 12 h and the DNA pellet collected by centrifuging at 12,000 g for 20 min. The pellet was redissolved in water and then precipitated and centrifuged again. The resulting blue or red pellet was suspended in ethanol, centrifuged, and dried. The dried pellet was weighed and dissolved in 1 mL of double distilled water resulting in a clear colored solution with […]max˜550 nm, □˜750 M^−1 cm^−1. This is the chromophore of the aminoquinone resulting from nucleophile-mediated opening of the aziridine ring. Model 2′-chloroethyl aminoquinones for extinction coefficient determination were prepared by treatment of the indoloquinone with HCl. {Skibo, E. B. and Xing, C., Chemistry and DNA Alkylation Reactions of Aziridinyl Quinones: Development of an Efficient Alkylating Agent of the Phosphate Backbone, Biochemistry, 1998, 37, 15199-15213}.

[1] = test system: National Cancer Institute 60-cell line; test: NCI 60-cell line in vitro screen (average cytotoxicity and cancer specificity); settings: for Average Log LC50 60-Cell Line: mean over 60 cell lines, ± value measures cancer specificity
Method: Cytotoxic and Cytostatic Screening of Series 1-9. […] The cytostatic parameters include GI50 and TGI, which are the concentrations of drug required for 50% growth inhibition and total growth inhibition, respectively. The cytotoxic parameter is the LC50, which is the concentration required for 50% cell kill.
4. […] Cancer specificity is measured from the ± value under the “Average Log LC50 60-Cell Line” heading of Table 5. A ± value greater than 2 indicates a greater than 100-fold higher/lower cytotoxicity in some histological cancer types compared to the mean cytotoxicity.
The DT-diaphorase levels in the National Cancer Institute 60-cell line in vitro screen have been determined and correlated with the cytotoxicity of antitumor agents activated by 2-electron reduction. {Fitzsimmons, S. A., Workman, P., Grever, M., Paull, K., Camalier, R., and Lewis, A. D., Reductase Enzyme Expression Across the National Cancer Institute Tumor Cell Line Panel: Correlation with Sensitivity To Mitomycin C and EO9, J. Natl. Cancer Inst., 1996, 88, 259-69}. Sensitive cancers usually include NSC lung and colon cancers (and to a lesser extent CNS, melanoma, and renal cancers) by virtue of their elevated DT-diaphorase levels.

[2] = test system: NCI-H460 non-small-lung cancer cell line; test: NCI In Vitro Cell Line Screening, NSC H460 cell line; assay type: cell-based; settings: for GI50 / CC50: Homo sapiens; for GI50: NCI-H460, concentration for 50% growth inhibition, read-out: Log GI50 NSC H460 (converted); for CC50: NCI-H460, read-out: Log LC50 NSC H460, concentration for 50% cell kill (converted); for Log TGI NSC H460: concentration for total growth inhibition; for Log GI50 NSC H460: concentration for 50% growth inhibition
Text: Cytotoxic and Cytostatic Screening of Series 1-9.

B16 melanoma = test: animal or person; assay type: in vivo; settings: for In vivo T/C (Treated/Control) / response vs control in vivo at 2 mg/kg: T/C at day 25, <40% active; for response vs control in vivo at 2 mg/kg: Mus musculus, B16, 600 h, read-out: In vivo T/C (Treated/Control)
Text: Shown in Tables 6 and 7 are B16 melanoma syngraft assays {Griswold, D. P., Consideration of the Subcutaneously Implanted B16 Melanoma as a Screening Model for Potential Anticancer Agents, Cancer Chemother Reports, 1972, 3, 315-324} of some members of Series 1-9, as well as related compounds previously reported from this laboratory. {Xing, C. G., Wu, P., Skibo, E. B., and Dorr, R. T., Design of cancer-specific antitumor agents based on aziridlinylcyclopent[b]indoloquinones, J. Med. Chem., 2000, 43, 457-466}. Each agent was evaluated at three doses in C57/bl mice: 2, 3 or 5 mg/kg/day, on days 1, 5, and 9 after subcutaneous tumor implantation of 10^5 cells in the front flank on day 0. “Toxic” means that there was early lethality, or ≧50% lethality prior to any deaths in the control group. The treated over control values (T/C) were measured at day 25 of the study. A T/C value <40% is considered active.
In vivo Evaluation. The B-16 melanoma in C57/bl mice syngraft model was employed to determine in vivo activity. {Griswold, D. P., Consideration of the Subcutaneously Implanted B16 Melanoma as a Screening Model for Potential Anticancer Agents, Cancer Chemother Reports, 1972, 3, 315-324}. Each agent was evaluated at three doses: 2, 3 or 5 mg/kg/day, on days 1, 5, and 9 after subcutaneous tumor implantation of 10^5 cells in the front flank on day 0. “Toxic” means that there was early lethality, or ≧50% lethality prior to any deaths in the control group. The treated over control values (T/C) were measured at day 25 of the study. A T/C value<40% is considered active. […] The control was obtained with drug-free animals.

CC(=O)OC1CCc2c1[nH]c1c2C(=O)C(N2CC2)=CC1=O (stereo not drawn) [Compound 1b, 3-Acetoxy-7-aziridinyl-1,2,3,4-tetrahydrocyclopent[b]indole-5,8-dione]
melting point: 165 °C
DNA alkylation percentage (600 bp calf thymus DNA): 34%

CC(=O)OC1CCc2c3c(n(C(C)=O)c21)C(=O)C=C(N1CC1)C3=O (stereo not drawn) [Compound 1c, 7-Aziridinyl-3-acetoxy-4-acetyl-1,2,3,4-tetrahydrocyclopent[b]indole-5,8-dione]
melting point: 140 °C

CC(=O)OC1CCc2c1[nH]c1c2C(=O)C(N2CC2)=C(C)C1=O (stereo not drawn) [Compound 2b, 3-Acetoxy-7-aziridinyl-6-methyl-1,2,3,4-tetrahydrocyclopent[b]indole-5,8-dione]
melting point: 165 °C
DNA alkylation percentage (600 bp calf thymus DNA): 21%

CC(=O)OC1CCc2c3c(n(C(C)=O)c21)C(=O)C(C)=C(N1CC1)C3=O (stereo not drawn) [Compound 2c, 7-Aziridinyl-3-acetoxy-4-acetyl-6-methyl-1,2,3,4-tetrahydrocyclopent[b]indole-5,8-dione]
melting point: 156 °C

O=C1C(N2CC2)=CC(=O)c2c1[nH]c1c2CCC1O (stereo not drawn) [Compound 3a, 6-Aziridinyl-3-hydroxy-1,2,3,4-tetrahydrocyclopent[b]indole-5,8-dione]
DNA alkylation percentage (600 bp calf thymus DNA): 30%
cytostatic/cytotoxic activity versus histological cancer type (in words) [1]: significant cytostatic/cytotoxic activity
Average Log LC50 60-Cell Line [1]: −5.59 ± 1.95
GI50 [2]: 7.24 nM
CC50 [2]: 1780 nM
Log TGI NSC H460 [2]: −7.24

CC(=O)OC1CCc2c1[nH]c1c2C(=O)C(C)=C(N2CC2)C1=O (stereo not drawn) [Compound 4b]
DNA alkylation percentage (600 bp calf thymus DNA): 44%
± value of Average Log LC50 60-Cell Line [1]: ~1
Average Log LC50 60-Cell Line [1]: −4.67 ± 1.04
GI50 [2]: 112 nM
CC50 [2]: 1230 nM
Log TGI NSC H460 [2]: −6.17

CC(=O)OC1CCc2c3c(n(C(C)=O)c21)C(=O)C(N1CC1)=C(C)C3=O (stereo not drawn) [Compound 4c]
In vivo T/C (Treated/Control) (B16 melanoma; 2 mg/Kg/Day on days 1, 5, 9): 37%
In vivo T/C (Treated/Control) (B16 melanoma; 3 mg/Kg/Day on days 1, 5, 9): 15%
In vivo T/C (Treated/Control) (B16 melanoma; 5 mg/Kg/Day on days 1, 5, 9): 15%
in vivo antitumor activity (in words) (B16 melanoma; 2, 3 or 5 mg/kg/day): active at all doses
in vivo toxicity (in words) (B16 melanoma; 2, 3 or 5 mg/kg/day): without any toxicity
DNA alkylation percentage (600 bp calf thymus DNA): 9%
Average Log LC50 60-Cell Line [1]: −4.60 ± 1.12 and −4.49 ± 1.31

CC1=C(N2CC2)C(=O)c2c(c3c(n2C)C(O)CC3)C1=O (stereo not drawn) [Compound 5a, 6-Aziridinyl-4,7-dimethyl-3-Hydroxy-1,2,3,4-tetrahydrocyclopent[b]indole-5,8-dione]
DNA alkylation percentage (600 bp calf thymus DNA): 0.3%
cytostatic/cytotoxic activity versus histological cancer type (in words) [1]: inactive against all histological cancer types
CC50 ([1]; Homo sapiens, 60 cell, read-out: Average Log LC50 60-Cell Line (converted)): ≥ 100000 nM
cytostatic and cytotoxic activity (−log) [2]: 5-6
GI50 [2]: 1260 nM
CC50 [2]: 50100 nM
Log TGI NSC H460 [2]: −5.12

CC(=O)OC1CCc2c3c(n(C)c21)C(=O)C(N1CC1)=C(C)C3=O (stereo not drawn) [Compound 5b]
melting point: 157 °C

Cn1c(CO)c(CO)c2c1C(=O)C=C(N1CC1)C2=O [Compound 6b, 5-Aziridinyl-2,3-di(hydroxymethyl)-1-methylindole-4,7-dione]
In vivo T/C (Treated/Control) (B16 melanoma; 2 mg/Kg/Day on days 1, 5, 9): Toxic (“Toxic” means ≧ 50% lethality before any control growth deaths)
In vivo T/C (Treated/Control) (B16 melanoma; 3 mg/Kg/Day on days 1, 5, 9): Toxic (“Toxic” means ≧ 50% lethality before any control growth deaths)
In vivo T/C (Treated/Control) (B16 melanoma; 5 mg/Kg/Day on days 1, 5, 9): Toxic (“Toxic” means ≧ 50% lethality before any control growth deaths)
DNA alkylation percentage (600 bp calf thymus DNA): 3.8%
Average Log LC50 60-Cell Line [1]: −5.35 ± 2.65 and −5.50 ± 2.5
GI50 [2]: 10 nM
Log TGI NSC H460 [2]: −8

CC1=C(N2CC2)C(=O)c2c([nH]c(CO)c2CO)C1=O [Compound 7a, 5-Aziridinyl-2,3-di(hydroxymethyl)-6-methylindole-4,7-dione]
In vivo T/C (Treated/Control) (B16 melanoma; 3 mg/Kg/Day on days 1, 5, 9): Toxic (“Toxic” means ≧ 50% lethality before any control growth deaths)
In vivo T/C (Treated/Control) (B16 melanoma; 5 mg/Kg/Day on days 1, 5, 9): Toxic (“Toxic” means ≧ 50% lethality before any control growth deaths)
response vs control in vivo at 2 mg/kg (B16 melanoma; 2 mg/Kg/Day on days 1, 5, 9): 36%
DNA alkylation percentage (600 bp calf thymus DNA): 2%
cytostatic/cytotoxic activity versus histological cancer type (in words) [1]: significant cytotoxic and cytostatic properties
Average Log LC50 60-Cell Line [1]: −5.54 ± 1.89
GI50 [2]: 10 nM
CC50 [2]: 1170 nM
Log TGI NSC H460 [2]: −7.49

CC1=C(N2CC2)C(=O)c2c(CO)c(CO)n(C)c2C1=O [Compound 7c, 5-Aziridinyl-2,3-di(hydroxymethyl)-1,6-dimethylindole-4,7-dione]
melting point: 165 °C
DNA alkylation (in words) (600 bp calf thymus DNA): complete loss of DNA alkylation
DNA alkylation percentage (600 bp calf thymus DNA): 0%

CC(=O)OCc1[nH]c2c(c1COC(C)=O)C(=O)C(C)=C(N1CC1)C2=O [Compound 8b, 6-Aziridinyl-2,3-di(acetoxymethyl)-5-methylindole-4,7-dione]
In vivo T/C (Treated/Control) (B16 melanoma; 3 mg/Kg/Day on days 1, 5, 9): Toxic (“Toxic” means ≧ 50% lethality before any control growth deaths)
In vivo T/C (Treated/Control) (B16 melanoma; 5 mg/Kg/Day on days 1, 5, 9): Toxic (“Toxic” means ≧ 50% lethality before any control growth deaths)
response vs control in vivo at 2 mg/kg (B16 melanoma; 2 mg/Kg/Day on days 1, 5, 9): 74%
DNA alkylation (in words) (600 bp calf thymus DNA): high DNA alkylation percentages
DNA alkylation percentage (600 bp calf thymus DNA): 37%
Average Log LC50 60-Cell Line [1]: −4.52 ± 1.7 and −4.61 ± 2.5
GI50 [2]: 35.5 nM
Log GI50 NSC H460 [2]: −7.63
Log TGI NSC H460 [2]: −6.75 and −6.71

CC1=C(N2CC2)C(=O)c2c(c(CO)c(CO)n2C)C1=O [Compound 8c, 6-Aziridinyl-2,3-di(hydroxymethyl)-1,5-dimethylindol-4,7-dione]
In vivo T/C (Treated/Control) (B16 melanoma; 5 mg/Kg/Day on days 1, 5, 9): Toxic (“Toxic” means ≧ 50% lethality before any control growth deaths)
DNA alkylation (in words) (600 bp calf thymus DNA): complete loss of DNA alkylation
DNA alkylation percentage (600 bp calf thymus DNA): 0%
Average Log LC50 60-Cell Line [1]: −4.61 ± 1.64 and −4.67 ± 2.48
GI50 [2]: 38.9 nM
CC50 [2]: 955 nM
Log GI50 NSC H460 [2]: −7.27
Log TGI NSC H460 [2]: −6.66
Log LC50 NSC H460 ([2]; human): −6.21

O=C1C(N2CC2)=CC(=O)c2c1[nH]c(CO)c2CO [Compound 9a, 6-Aziridinyl-2,3-di(hydroxymethyl)indole-4,7-dione]
DNA alkylation percentage (600 bp calf thymus DNA): 3.4%
Average Log LC50 60-Cell Line [1]: −5.07 ± 1.43
GI50 [2]: 138 nM
CC50 [2]: 11700 nM
Log TGI NSC H460 [2]: −5.94
